# Patent US7781591B2, “Substituted 3-cyanopyridines as protein kinase inhibitors” (Wyeth LLC, priority 2006, dated 2010)
# Target: T1, human PKCθ full length enzyme (Homo sapiens, UniProt Q04759)
# T1 construct: human PKCθ full length enzyme (Panvera Cat# P2996); purchased Panvera P2996
# Experiment: PKCθ IMAP assay (fluorescence polarization)
# Type: biochemical
# Details: human PKCθ full length enzyme, IMAP; average value; read-out: IC50 PKCθ IMAP
# Description: The reaction buffer was prepared by diluting the 5× stock reaction buffer and adding DTT to obtain a concentration of 3.0 mM. […] The final concentration of compound was 2× and 10% DMSO. DMSO was added to the rest of the master mix to increase the concentration to 10%. 10 μl of the master mix containing 10% DMSO was added to the rest of the wells on the plate except the 2nd column. 20 μl was transferred from the first column to the 2nd column. The compounds were serially diluted in 2:1 ratio starting from the 2nd column. A 2× ([…]) PKCθ solution was made in the reaction buffer. 10 μl of the PKCθ solution was added to every well to achieve these final concentrations: PKCθ—1 nM; ATP—6 μM; peptide—100 nM; DMSO—5%. Samples were incubated for 25 minutes at room temperature. The binding reagent was prepared by diluting the beads in 1× binding buffer to 800:1. 50 μl of the binding reagent was added to every well and incubated for 20 minutes. FP was measured using Envision2100 (PerkinElmer Life Sciences). Wells with no ATPs and wells with no enzymes were used as controls.
# T1 sequence (Q04759 whole entry): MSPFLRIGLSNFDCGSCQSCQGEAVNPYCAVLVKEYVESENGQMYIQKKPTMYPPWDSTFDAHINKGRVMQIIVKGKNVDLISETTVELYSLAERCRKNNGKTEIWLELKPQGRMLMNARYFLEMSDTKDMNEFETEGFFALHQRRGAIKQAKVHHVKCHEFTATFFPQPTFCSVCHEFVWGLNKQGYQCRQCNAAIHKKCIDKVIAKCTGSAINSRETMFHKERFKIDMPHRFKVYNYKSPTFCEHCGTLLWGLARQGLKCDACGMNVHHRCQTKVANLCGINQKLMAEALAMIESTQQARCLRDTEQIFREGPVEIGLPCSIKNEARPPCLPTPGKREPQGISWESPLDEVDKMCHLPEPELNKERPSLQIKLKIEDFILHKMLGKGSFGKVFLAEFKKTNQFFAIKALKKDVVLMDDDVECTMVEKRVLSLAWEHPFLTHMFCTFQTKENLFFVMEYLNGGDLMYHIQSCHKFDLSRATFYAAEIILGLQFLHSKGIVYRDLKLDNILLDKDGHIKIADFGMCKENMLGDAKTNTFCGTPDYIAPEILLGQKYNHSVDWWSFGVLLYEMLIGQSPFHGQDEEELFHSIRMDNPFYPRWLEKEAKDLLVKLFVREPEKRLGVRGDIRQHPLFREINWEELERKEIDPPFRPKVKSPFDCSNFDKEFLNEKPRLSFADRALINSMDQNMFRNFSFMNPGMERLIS
row,SMILES,IC50
1,"CC(=O)Nc1ccc(-c2cncc(C#N)c2Nc2ccc3[nH]ccc3c2C)cc1 [Compound 576, N-(4-{5-cyano-4-[(4-methyl-1H-indol-5-yl)amino]pyridin-3-yl}phenyl)acetamide]",73 nM
2,"N#Cc1cncc(-c2cc3cc(CNC(=O)CCN)ccc3s2)c1Nc1cccc2[nH]ccc12 [Compound 360, N-({2-[5-cyano-4-(1H-indol-4-ylamino)pyridin-3-yl]-1-benzothien-5-yl}methyl)-b-alaninamide]",2 nM
3,"N#Cc1cncc(-c2cc3cc(CNCc4ccncc4)ccc3s2)c1Nc1cccc2[nH]ccc12 [Compound 290, 4-(1H-indol-4-ylamino)-5-(5-{[(pyridin-4-ylmethyl)amino]methyl}-1-benzothien-2-yl)nicotinonitrile]",4 nM
4,"Cc1c(Nc2c(C#N)cncc2-c2ccc(OCCNCc3ccncc3)cc2)ccc2[nH]ccc12 [Compound 434, 4-[(4-methyl-1H-indol-5-yl)amino]-5-(4-{2-[(pyridin-4-ylmethyl)amino]ethoxy}phenyl)nicotinonitrile]",14 nM
5,"N#Cc1cncc(-c2cccc(OCCN3CCCCC3)c2)c1Nc1cccc2[nH]ccc12 [Compound 171, 4-(1H-indol-4-ylamino)-5-[3-(2-piperidin-1-ylethoxy)phenyl]nicotinonitrile]",50 nM
6,"N#Cc1cncc(-c2cccc(C(=O)O)c2)c1Nc1cccc2[nH]ccc12 [Compound 327, 3-[5-cyano-4-(1H-indol-4-ylamino)pyridin-3-yl]benzoic acid]",120 nM
7,"Cc1c(Nc2c(C#N)cncc2-c2cccc(Br)c2)ccc2[nH]ccc12 [Compound 298, 5-(3-bromophenyl)-4-[(4-methyl-1H-indol-5-yl)amino]nicotinonitrile]",4 nM
8,"COc1ccc(-c2cncc(C#N)c2Nc2ccc3[nH]ccc3c2)cc1OCCN1CCNCC1 [Compound 232, 4-(1H-indol-5-ylamino)-5-[4-methoxy-3-(2-piperazin-1-ylethoxy)phenyl]nicotinonitrile]",200 nM
9,"CN(C)c1cccc(-c2cncc(C#N)c2Nc2cccc3[nH]ccc23)c1 [Compound 254, 5-[3-(dimethylamino)phenyl]-4-(1H-indol-4-ylamino)nicotinonitrile]",80 nM
10,"COc1ccc(-c2cncc(C#N)c2Nc2ccc3[nH]ccc3c2)cc1OCCNCc1ccco1 [Compound 245, 5-(3-{2-[(2-furylmethyl)amino]ethoxy}-4-methoxyphenyl)-4-(1H-indol-5-ylamino)nicotinonitrile]",270 nM
11,"Cc1c(Nc2c(C#N)cncc2-c2ccc(CNCc3ccccc3)o2)ccc2[nH]ccc12 [Compound 408, 5-{5-[(benzylamino)methyl]-2-furyl}-4-[(4-methyl-1H-indol-5-yl)amino]nicotinonitrile]",11 nM
12,"CCCCNC(=O)Nc1ccc(-c2cncc(C#N)c2Nc2ccc3[nH]ccc3c2C)cc1 [Compound 525, 1-butyl-3-(4-{5-cyano-4-[(4-methyl-1H-indol-5-yl)amino]pyridin-3-yl}phenyl)urea]",7 nM
13,"Cc1c(Nc2c(C#N)cncc2-c2ccc(N(C)C)cc2)ccc2[nH]ccc12 [Compound 574, 5-[4-(dimethylamino)phenyl]-4-[(4-methyl-1H-indol-5-yl)amino]nicotinonitrile]",15 nM
14,"N#Cc1cncc(-c2cccc(CN)c2)c1Nc1cccc2[nH]ccc12 [Compound 328, 5-[3-(aminomethyl)phenyl]-4-(1H-indol-4-ylamino)nicotinonitrile]",20 nM
15,"COc1ccc(-c2cncc(C#N)c2Nc2ccc3[nH]ccc3c2)cc1OCCN1CCC(O)CC1 [Compound 238, 5-{3-[2-(4-hydroxypiperidin-1-yl)ethoxy]-4-methoxyphenyl}-4-(1H-indol-5-ylamino)nicotinonitrile]",210 nM
16,"Cc1cc2[nH]ccc2cc1Nc1c(C#N)cncc1-c1ccc(OCCN2CCC(N3CCCC3)CC2)cc1 [Compound 506, 4-[(6-methyl-1H-indol-5-yl)amino]-5-{4-[2-(4-pyrrolidin-1-ylpiperidin-1-yl)ethoxy]phenyl}nicotinonitrile]",83 nM

# More lines, in order of falling IC50, values ahead:
row,IC50,SMILES
1,10900 nM,"Cc1noc(C)c1-c1cncc(C#N)c1Nc1ccc2[nH]ccc2c1 [Compound 269, 5-(3,5-dimethylisoxazol-4-yl)-4-(1H-indol-5-ylamino)nicotinonitrile]"
2,310 nM,"N#Cc1cncc(-c2ccccc2Br)c1Nc1ccc2[nH]ccc2c1 [Compound 115, 5-(2-bromophenyl)-4-(1H-indol-5-ylamino)nicotinonitrile]"
3,61 nM,"Cc1c(Nc2c(C#N)cncc2-c2ccnn2C)ccc2[nH]ccc12 [Compound 583, 4-[(4-methyl-1H-indol-5-yl)amino]-5-(1-methyl-1H-pyrazol-5-yl)nicotinonitrile]"
4,49 nM,"Cc1c(Nc2c(C#N)cncc2-c2ccc(OCCN3CCC(c4ccccc4)CC3)cc2)ccc2[nH]ccc12 [Compound 435, 4-[(4-methyl-1H-indol-5-yl)amino]-5-{4-[2-(4-phenylpiperidin-1-yl)ethoxy]phenyl}nicotinonitrile]"
5,40 nM,"CN(C)CCCOc1ccc(-c2cncc(C#N)c2Nc2cccc3[nH]ccc23)cn1 [Compound 356, 6′-[3-(dimethylamino)propoxy]-4-(1H-indol-4-ylamino)-3,3′-bipyridine-5-carbonitrile]"
6,40 nM,"COc1ccc(-c2cncc(C#N)c2Nc2ccc3[nH]ccc3c2)cc1OCCNCCc1ccccn1 [Compound 251, 4-(1H-indol-5-ylamino)-5-(4-methoxy-3-{2-[(2-pyridin-2-ylethyl)amino]ethoxy}phenyl)nicotinonitrile]"
7,31 nM,"Cc1c(Nc2c(C#N)cncc2-c2ccnc(Cl)c2)ccc2[nH]ccc12 [Compound 469, 2′-chloro-4-[(4-methyl-1H-indol-5-yl)amino]-3,4′-bipyridine-5-carbonitrile]"
8,20 nM,"N#Cc1cncc(-c2cccc(OCCNCCN3CCCC3)c2)c1Nc1ccc2[nH]ccc2c1 [Compound 177, 4-(1H-indol-5-ylamino)-5-(3-{2-[(2-pyrrolidin-1-ylethyl)amino]ethoxy}phenyl)nicotinonitrile]"
9,20 nM,"Cc1c(Nc2c(C#N)cncc2-c2ccc(Br)cc2F)ccc2[nH]ccc12 [Compound 381, 5-(4-bromo-2-fluorophenyl)-4-[(4-methyl-1H-indol-5-yl)amino]nicotinonitrile]"
10,4 nM,"N#Cc1cncc(-c2cc3cc(CN4CCC(CO)CC4)ccc3s2)c1Nc1cccc2[nH]ccc12 [Compound 284, 5-(5-{[4-(hydroxymethyl)piperidin-1-yl]methyl}-1-benzothien-2-yl)-4-(1H-indol-4-ylamino)nicotinonitrile]"
11,3 nM,"Cc1c(Nc2c(C#N)cncc2-c2ccc(OCCNCC3CCN(C)CC3)cc2)ccc2[nH]ccc12 [Compound 421, 4-[(4-methyl-1H-indol-5-yl)amino]-5-[4-(2-{[(1-methylpiperidin-4-yl)methyl]amino}ethoxy)phenyl]nicotinonitrile]"
12,3 nM,"N#Cc1cncc(-c2cc3cc(CNCCN4CCOCC4)ccc3s2)c1Nc1cccc2[nH]ccc12 [Compound 282, 4-(1H-indol-4-ylamino)-5-(5-{[(2-morpholin-4-ylethyl)amino]methyl}-1-benzothien-2-yl)nicotinonitrile]"
13,1 nM,"Cc1c(Nc2c(C#N)cncc2-c2cc3cc(C=O)ccc3o2)ccc2[nH]ccc12 [Compound 465, 5-(5-formyl-1-benzofuran-2-yl)-4-[(4-methyl-1H-indol-5-yl)amino]nicotinonitrile]"
